Measured values published in patent publication US10597388B2, “Pyridazinone herbicides” (FMC CORPORATION, priority 2014, dated 2020).

Key:
Test in all cases: Test D controlled growth environment herbicide test, pre- and postemergence
Type in all cases: in vivo
[1] = system: barley, spring (spring barley, Hordeum vulgare)
Method in brief: (§1)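 Rating is visual, 0–100 scale (100 = complete control), made against untreated plants 14–21 d after treatment in controlled growth conditions. Postemergence sprays went onto 1- to 4-leaf plants in peat medium; preemergence sprays onto silt loam after sowing; formulation included a surfactant.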

[2] = system: barley, winter (winter barley, Hordeum vulgare)
Method in brief: as §1

[3] = system: bluegrass (annual bluegrass, Poa annua)
Method in brief: as §1

[4] = system: bromegrass, downy (downy bromegrass, Bromus tectorum)
Method in brief: as §1

[5] = system: canarygrass (Phalaris minor)
Method in brief: as §1

[6] = system: chamomile (scentless chamomile, Matricaria inodora)
Method in brief: as §1

[7] = system: foxtail, green (green foxtail, Setaria viridis)
Method in brief: as §1

[8] = system: galium (catchweed bedstraw, Galium aparine)
Method in brief: as §1

kochia (Kochia scoparia) = system: kochia (Kochia scoparia)
Method in brief: as §1

[9] = system: lambsquarters (Chenopodium album)
Method in brief: as §1

[10] = system: mustard, wild (wild mustard, Sinapis arvensis)
Method in brief: as §1

[11] = system: oat, wild (wild oat, Avena fatua)
Method in brief: as §1

[12] = system: speedwell (bird's-eye speedwell, Veronica persica)
Method in brief: as §1

[13] = Postemergence, 31 g ai/ha, scale 0 to 100 (0 no effect, 100 complete control)
[14] = Postemergence, 125 g ai/ha, visual rating on scale 0 (no effect) to 100 (complete control), 14 to 21 d
[15] = Postemergence, 250 g ai/ha, scale 0 to 100 (0 no effect, 100 complete control)
[16] = Preemergence, 62 g ai/ha, scale 0 to 100 (0 no effect, 100 complete control)
[17] = Preemergence, 125 g ai/ha, scale 0 to 100 (0 no effect, 100 complete control)
[18] = Preemergence, 250 g ai/ha, scale 0 to 100 (0 no effect, 100 complete control)
[19] = postemergence, 62 g ai/ha, scale 0 to 100, 0 no effect, 100 complete control

CCC(=O)Oc1c(C)nn(C)c(=O)c1-c1c(C)sc2ccc(C)cc12 [Compound 42]
Plant response rating, Barley, Spring [1, 13]: 0 | Plant response rating, Barley, Spring [1, 14]: 5 | Plant response rating, Barley, Spring [1, 15]: 10 | Plant response rating (scale of 0 to 100), Barley, Spring ([1]; Preemergence, 31 g ai/ha): 0 | Plant response rating, Barley, Spring [1, 16]: 0 | Plant response rating, Barley, Spring [1, 17]: 0 | Barley, Spring plant response rating [1, 18]: 5 | Plant response rating, Barley, Spring [1, 19]: 0 | Plant response rating, Barley, Winter [2, 13]: 0 | Plant response rating, Barley, Winter [2, 14]: 0 | Plant response rating, Barley, Winter [2, 15]: 10 | Plant response rating (scale of 0 to 100), Barley, Winter ([2]; Preemergence, 31 g ai/ha): 0 | Plant response rating, Barley, Winter [2, 16]: 0 | Plant response rating, Barley, Winter [2, 17]: 5 | Barley, Winter plant response rating [2, 18]: 15 | Plant response rating, Barley, Winter [2, 19]: 0 | Bluegrass plant response rating [3, 13]: 15 | Plant response rating, Bluegrass [3, 14]: 20 | Plant response rating, Bluegrass [3, 15]: 35 | Plant response rating (scale of 0 to 100), Bluegrass ([3]; Preemergence, 31 g ai/ha): 35 | Plant response rating, Bluegrass [3, 16]: 45 | Plant response rating, Bluegrass [3, 17]: 65 | Bluegrass plant response rating [3, 18]: 80 | Plant response rating, Bluegrass [3, 19]: 20 | Bromegrass, Downy plant response rating [4, 13]: 0 | Plant response rating, Bromegrass, Downy [4, 14]: 40 | Plant response rating, Bromegrass, Downy [4, 15]: 70 | Plant response rating (scale of 0 to 100), Bromegrass, Downy ([4]; Preemergence, 31 g ai/ha): 45 | Plant response rating, Bromegrass, Downy [4, 16]: 55 | Plant response rating, Bromegrass, Downy [4, 17]: 70 | Plant response rating, Bromegrass, Downy [4, 18]: 90 | Plant response rating, Bromegrass, Downy [4, 19]: 20 | Canarygrass plant response rating [5, 13]: 50 | Plant response rating, Canarygrass [5, 14]: 80 | Plant response rating, Canarygrass [5, 15]: 80 | Plant response rating (scale of 0 to 100), Canarygrass ([5]; Preemergence, 31 g ai/ha): 90 | Plant response rating, Canarygrass [5, 16]: 95 | Plant response rating, Canarygrass [5, 17]: 100 | Plant response rating, Canarygrass [5, 18]: 100 | Plant response rating, Canarygrass [5, 19]: 75 | Chamomile plant response rating [6, 13]: 75 | Plant response rating, Chamomile [6, 14]: 100 | Plant response rating, Chamomile [6, 15]: 100 | Plant response rating (scale of 0 to 100), Chamomile ([6]; Preemergence, 31 g ai/ha): 95 | Plant response rating, Chamomile [6, 16]: 100 | Plant response rating, Chamomile [6, 17]: 100 | Plant response rating, Chamomile [6, 18]: 100 | Plant response rating, Chamomile [6, 19]: 70 | Foxtail, Green plant response rating [7, 13]: 35 | Plant response rating, Foxtail, Green [7, 14]: 65 | Plant response rating, Foxtail, Green [7, 15]: 80 | Plant response rating (scale of 0 to 100), Foxtail, Green ([7]; Preemergence, 31 g ai/ha): 30 | Plant response rating, Foxtail, Green [7, 16]: 65 | Plant response rating, Foxtail, Green [7, 17]: 100 | Plant response rating, Foxtail, Green [7, 18]: 100 | Plant response rating, Foxtail, Green [7, 19]: 50 | Galium plant response rating [8, 13]: 100 | Plant response rating, Galium [8, 14]: 100 | Plant response rating, Galium [8, 15]: 100 | Plant response rating (scale of 0 to 100), Galium ([8]; Preemergence, 31 g ai/ha): 70 | Plant response rating, Galium [8, 16]: 85 | Plant response rating, Galium [8, 17]: 95 | Plant response rating, Galium [8, 18]: 100 | Plant response rating, Galium [8, 19]: 100 | Kochia plant response rating (kochia (Kochia scoparia); [13]): 70 | Plant response rating, Kochia (kochia (Kochia scoparia); [14]): 95 | Plant response rating, Kochia (kochia (Kochia scoparia); [15]): 100 | Plant response rating (scale of 0 to 100), Kochia (kochia (Kochia scoparia); Preemergence, 31 g ai/ha): 20 | Plant response rating, Kochia (kochia (Kochia scoparia); [16]): 60 | Plant response rating, Kochia (kochia (Kochia scoparia); [17]): 75 | Plant response rating, Kochia (kochia (Kochia scoparia); [18]): 100 | Plant response rating, Kochia (kochia (Kochia scoparia); [19]): 90 | Lambsquarters plant response rating [9, 13]: 80 | Plant response rating, Lambsquarters [9, 14]: 85 | Plant response rating, Lambsquarters [9, 15]: 90 | Plant response rating (scale of 0 to 100), Lambsquarters ([9]; Preemergence, 31 g ai/ha): 98 | Plant response rating, Lambsquarters [9, 16]: 100 | Plant response rating, Lambsquarters [9, 17]: 100 | Plant response rating, Lambsquarters [9, 18]: 100 | Plant response rating, Lambsquarters [9, 19]: 85 | Mustard, Wild plant response rating [10, 13]: 25 | Plant response rating, Mustard, Wild [10, 14]: 70 | Plant response rating, Mustard, Wild [10, 15]: 80 | Plant response rating (scale of 0 to 100), Mustard, Wild ([10]; Preemergence, 31 g ai/ha): 15 | Plant response rating, Mustard, Wild [10, 16]: 15 | Plant response rating, Mustard, Wild [10, 17]: 20 | Plant response rating, Mustard, Wild [10, 18]: 25 | Plant response rating, Mustard, Wild [10, 19]: 70 | Oat, Wild plant response rating [11, 13]: 75 | Plant response rating, Oat, Wild [11, 14]: 85 | Plant response rating, Oat, Wild [11, 15]: 95 | Plant response rating (scale of 0 to 100), Oat, Wild ([11]; Preemergence, 31 g ai/ha): 90 | Plant response rating, Oat, Wild [11, 16]: 90 | Plant response rating, Oat, Wild [11, 17]: 95 | Plant response rating, Oat, Wild [11, 18]: 95 | Plant response rating, Oat, Wild [11, 19]: 85 | Speedwell plant response rating [12, 13]: 10 | Plant response rating, Speedwell [12, 14]: 45 | Plant response rating, Speedwell [12, 15]: 45 | Plant response rating (scale of 0 to 100), Speedwell ([12]; Preemergence, 31 g ai/ha): 70 | Plant response rating, Speedwell [12, 16]: 75 | Plant response rating, Speedwell [12, 17]: 70 | Plant response rating, Speedwell [12, 18]: 100 | Plant response rating, Speedwell [12, 19]: 50
